Reference: patent US10206937B2, “Boronic acid derivatives and therapeutic uses thereof” (Qpex Biopharma, Inc., priority 2014, dated 2019)

Test system: strains of Enterobacteriaceae producing various carbapenemases (class A, D and B; 104 strains)
Assay: Antibiotics potentiation by Compound 27 (MIC; meropenem, doripenem, ertapenem, cefepime)
Assay type: cell-based
Conditions: + 27 = with Compound 27 at fixed 4 μg/ml

Measured: MIC

COc1ccc2c(c1C(=O)O)OB(O)C(Sc1nnc(N)s1)C2 (stereo not shown) [M + 27]
Z (MIC of greater than 10 μg/mL): strain KP1165 Klebsiella pneumoniae (SHV-11(2b); CTX-M-15; VIM-27)
X (MIC of less than 1 μg/mL): strain KP1081 Klebsiella pneumoniae (NDM-1, TEM-1, SHV-11, CMY-6, CTX-M-15) | strain KP1082 Klebsiella pneumoniae (KPC-2, SHV-1) | strain KP1083 Klebsiella pneumoniae (KPC-3, SHV-1, TEM-1) | strain KP1088 Klebsiella pneumoniae (KPC-3, SHV-11, TEM-1) | strain KP1089 Klebsiella pneumonias (OXA-181, CTX-M-15, TEM, SHV) | strain KP1095 Klebsiella pneumoniae (KPC-2 TEM-1 SHV-1) | strain KP1096 Klebsiella pneumoniae (KPC-2 TEM-181 SHV-11) | strain KP1097 Klebsiella pneumonias (IMP-1) | strain KP1104 Klebsiella pneumoniae (KPC TEM) | strain KP1105 Klebsiella pneumoniae (KPC TEM SHV) | strain KP1159 Klebsiella pneumoniae (SHV-1(2b); CTX-M-15; IMP-4) | strain KP1160 Klebsiella pneumoniae (SHV-28(2be); CTX-M-15; IMP-26) | strain KP1161 Klebsiella pneumoniae (NDM-1) | strain KP1164 Klebsiella pneumoniae (SHV-12(2be); VIM-1) | strain KP1167 Klebsiella pneumoniae (SHV-12(2be); VIM-1) | strain KP1169 Klebsiella pneumoniae (SHV-11(2b); VIM-1) | strain KP1170 Klebsiella pneumoniae (SHV-11(2b); CTX-M-15; NDM-1) | strain KP1172 Klebsiella pneumoniae (SHV-31(2be); DHA-1; VIM-1) | strain KP1173 Klebsiella pneumoniae (TEM-33(2br); CTX-M-15; IMP-1) | strain KP1174 Klebsiella pneumoniae (CTX-M-14; IMP-1) | strain KP1175 Klebsiella pneumoniae (SHV-OSBL(2b); VIM-1) | strain KP1177 Klebsiella pneumoniae (SHV-OSBL(2b), TEM-OSBL(2b); CTX-M-15; NDM-1) | strain KP1178 Klebsiella pneumoniae (SHV-OSBL(2b;) TEM-OSBL(2b); CTX-M-15; NDM-1) | strain KP1179 Klebsiella pneumoniae (SHV-12(2be), TEM-OSBL(2b); CTX-M-15; NDM-7) | strain KP1180 Klebsiella pneumoniae (SHV-OSBL(2b), TEM-OSBL(2b); CTX-M-15; DHA-1; IMP-26) | strain KP1181 Klebsiella pneumoniae (SHV-OSBL(2b); CTX-M-15; IMP-26) | strain KP1183 Klebsiella pneumoniae (SHV-OSBL(2b), TEM-OSBL(2b); CTX-M-15; NDM-1) | strain KP1184 Klebsiella pneumoniae (SHV-OSBL(2b); IMP-1) | strain KP1186 Klebsiella pneumoniae (CTX-M-15; NDM-1) | strain KP1187 Klebsiella pneumoniae (SHV-55(2be), TEM-OSBL(2b); CTX-M-15; NDM-1) | strain KP1189 Klebsiella pneumoniae (TEM-OSBL(2b); CTX-M-15; CTX-M-27; NDM-1) | strain KPM1123 Klebsiella pneumoniae (KPC-2 TEM SHV) | strain KPM1202 Klebsiella pneumoniae (KPC SHV TEM) | strain KPM1203 Klebsiella pneumoniae (KPC SHV TEM) | strain KPM1344 Klebsiella pneumoniae (VIM-1) | strain KPM1345 Klebsiella pneumoniae (VIM-1 SHV) | strain KPM1347 Klebsiella pneumoniae (NDM-1 SHV CTX-M-15) | strain KX1017 Klebsiella oxytoca (KPC-2, OXA-2, SHV-30) | strain KX1018 Klebsiella oxytoca (KPC-2, SHV-40, OXY-1) | strain KX1019 Klebsiella oxytoca (KPC-2, OXA-2) | strain PM1024 Proteus mirabilis (TEM-1(2b); CMY-16; VIM-1) | strain PM1026 Proteus mirabilis (DHA-1; IMP-26) | strain PM1027 Proteus mirabilis (VIM-5)
Y (MIC of 1 μg/mL to 10 μg/mL): strain KP1084 Klebsiella pneumoniae (KPC-3, SHV-11, TEM-1) | strain KP1086 Klebsiella pneumoniae (OXA-48, CTX-M-15, TEM, SHV) | strain KP1087 Klebsiella pneumoniae (KPC-2, CTX-M-15, SHV-11, TEM-1) | strain KP1098 Klebsiella pneumoniae (IMP-26) | strain KP1166 Klebsiella pneumoniae (SHV-5(2be); VIM-26) | strain KP1185 Klebsiella pneumoniae (SHV-OSBL(2b), TEM-OSBL(2b); IMP-4) | strain KP1188 Klebsiella pneumoniae (SHV-OSBL(2b); CTX-M-15; NDM-1) | strain SM1023 Serratia marcescens (VIM-4)
